Test results from the NIST ThermoML archive (doi:10.1016/j.jct.2005.01.002).

Tests used:
[1] = 101.33 kPa, Liquid
[2] = xn = mol fraction of the nth substance listed; conditions: 101 kPa, Liquid

CC(C)OC(C)C [diisopropyl ether]
[1]
Conditions	mass density [kg/m3]
298.15 K	718.51
313.15 K	702.59
328.15 K	686.2

CCOCC [diethyl ether] + CN(C)C=O
[2], 298.15 K
Conditions	mass density [kg/m3]
x2 = 0.0575	720.7
x2 = 0.1033	730.11
x2 = 0.1606	742.64
x2 = 0.2076	752.93
x2 = 0.2524	762.76
x2 = 0.2979	772.93
x2 = 0.3683	788.85
x2 = 0.4058	797.64
x2 = 0.4414	805.85
x2 = 0.4932	818.09
x2 = 0.5094	821.95
x2 = 0.53	826.82
x2 = 0.5595	833.95
x2 = 0.6229	849.26
x2 = 0.643	854.21
x2 = 0.717	872.52
x2 = 0.7584	882.84
x2 = 0.8124	896.81
x2 = 0.8523	906.61
x2 = 0.9295	926.56
x2 = 0.9655	936.09

CCCOCCC [dipropyl ether]
[1]
Conditions	mass density [kg/m3]
298.15 K	741.94
313.15 K	727.87
328.15 K	713.73
343.15 K	699.61
358.15 K	684.92

CCCCCOCCCCC [dipentyl ether]
[1]
Conditions	mass density [kg/m3]
298.15 K	778.96
313.15 K	768.65
328.15 K	756.32
343.15 K	743.97
358.15 K	731.37

CN(C)C=O [dimethylformamide]
[1]
Conditions	mass density [kg/m3]
298.15 K	943.85
313.15 K	930.98
328.15 K	915.07
343.15 K	900.41
358.15 K	885.68

CCOCC [diethyl ether]
Conditions	mass density [kg/m3]
[1], 298.15 K	707.79

CC(C)OC(C)C [diisopropyl ether] + CN(C)C=O
mass density [kg/m3], [2]
Conditions	298.15 K	313.15 K	328.15 K
x2 = 0.0551	726.89	711.08	694.81
x2 = 0.0998	733.84	718.04	701.68
x2 = 0.1567	742.64	726.81	710.25
x2 = 0.2133	751.81	736.08	719.61
x2 = 0.2581	759.64	743.93	727.41
x2 = 0.3049	767.92	752.25	735.75
x2 = 0.3548	777.09	761.49	744.95
x2 = 0.4003	785.84	770.29	753.71
x2 = 0.4401	793.67	778.18	761.59
x2 = 0.4868	803.29	787.92	771.3
x2 = 0.5049	807.13	791.8	775.18
x2 = 0.5285	812.21	796.95	780.34
x2 = 0.5548	818.02	802.83	786.22
x2 = 0.6182	832.62	817.65	801.09
x2 = 0.653	840.97	826.05	809.51
x2 = 0.7137	856.34	841.67	825.18
x2 = 0.7611	869.01	854.62	838.24
x2 = 0.801	880.32	866.12	849.8
x2 = 0.8447	893.01	879.09	862.93
x2 = 0.9027	911.02	897.56	881.59
x2 = 0.9502	926.7	913.74	897.98
